Source: patent US20240100013A1, “SOTAGLIFLOZIN FOR IMPROVING LEFT ATRIAL FUNCTION” (CHARITÉ-UNIVERSITÄTSMEDIZIN BERLIN, priority 2021, published 2024)

How the values were obtained:
Assay type in all cases: cell-based, rat
[1] = tested on: LA cardiomyocytes; test: Caffeine-induced CaT: SR Ca2+ load, tau of decay and NCX forward-mode activity
From the text: Solutions and chemicals. Chemicals were obtained from Sigma-Aldrich (St. Louis, MO, USA) unless noted otherwise. The dual SGLT1/2 inhibitor sotagliflozin was provided by Lexicon Pharmaceuticals (The Woodlands, TX, USA). Fluorescent dyes Fura-2 AM, Rhod-2 AM, MitoTracker red, MitoTracker green, TMRE and H2-DCF were obtained from Thermo Fisher Scientific (Waltham, MA, USA). Tyrode solution contained (in mM): 130 NaCL, 4 KCl, 2 CaCl, 1 MgCl2, 10 Glucose, 10 HEPES; pH adjusted to 7.4 with NaOH. LA cardiomyocytes were plated on laminin-coated glass coverslips. 20 mM caffeine was added to Tyrode solution to induce sarcoplasmic reticulum (SR) Ca^2+ release and obtain a measure of SR Ca^2+ content. For baseline recordings of Ca^2+ transient (CaT), sarcomere shortening and arrhythmic events (FIGS. 1C-F, 2A-E, 3A-F), Tyrode solution containing 3 mM Ca^2+ was used. For glucose starvation (FIGS. 2H-J, 5A-D), glucose of Tyrode solution was replaced with 30 mM mannitol. For sub-sequent glucose reintroduction, mannitol was replaced with 30 mM glucose (“high glucose condition”).
(§1) Ca^2+ measurements and sarcomere shortening. Radiometric Ca^2+ measurements (excitation: 340 nm and 385 nm, emission: 510±10 nm; [Ca^2+] expressed as the ratio R=F340/F380) were performed either with a CytoCypher MultiCell System (CytoCypher BV, Netherlands; FIGS. 1C-F, 2D-G, 4A-F) or an Axiovert 200 microscope (Zeiss, Oberkochen, Germany) fluorescence imaging assembly (FIGS. 2A-C, 2H-J, 3A-E, 6E-I). LA cardiomyocytes were loaded with Fura-2 for 30 min at room temperature, washed twice with Tyrode solution and transferred to the microscope. Experiments were conducted at 37° C. and CaT were recorded at steady state (following electric stimulation).
CaT and sarcomere shortening of LA and LV cardiomyocytes were recorded for 10 s at 3 Hz stimulation. See FIGS. 2D-G, 4A-F. Electric stimulation was turned off and spontaneous SR Ca^2+ release events (See Voigt N, Heijman J, Wang Q, Chiang D Y, Li N, Karck M, Wehrens X H T, Nattel S, Dobrev D: “Cellular and molecular mechanisms of atrial arrhythmogenesis in patients with paroxysmal atrial fibrillation,” Circulation 2014, 129(2):145-156) (SCaEs) immediately recorded for a duration of 10 s (FIG. 1C-F). In a sub-set of LA cells, CaT were recorded for 10 s at 1 Hz stimulation. Electric stimulation was turned off, the cells immediately exposed to 20 mM caffeine and the sub-sequent caffeine-induced CaT recorded for 10 s (FIG. 2A-C, 3A-E). Sodium-calcium exchanger (NCX) activity was calculated as previously described. See Hohendanner F, Walther S, Maxwell J T, Kettlewell S, Awad S, Smith G L, Lonchyna V A, Blatter L A: “Inositol-1,4,5-trisphosphate induced Ca^2+ release and excitation-contraction coupling in atrial myocytes from normal and failing hearts,” J Physiol 2015, 593(6):1459-1477.

[2] = tested on: LA cardiomyocytes; test: Spontaneous SR Ca2+ release events (SCaEs) of isolated LA cardiomyocytes; settings: HFpEF LA cardiomyocytes after chronic treatment
From the text: Cardiomyocyte isolation. LA and LV cardiomyocytes were isolated using enzymatic digestion as previously described in detail. See Bode D, Guthof T, Pieske B M, Heinzel F R, Hohendanner F: “Isolation of Atrial Cardiomyocytes from a Rat Model of Metabolic Syndrome-related Heart Failure with Preserved Ejection Fraction,” J Vis Exp 2018(137).
Solutions and chemicals. Chemicals were obtained from Sigma-Aldrich (St. Louis, MO, USA) unless noted otherwise. The dual SGLT1/2 inhibitor sotagliflozin was provided by Lexicon Pharmaceuticals (The Woodlands, TX, USA). Fluorescent dyes Fura-2 AM, Rhod-2 AM, MitoTracker red, MitoTracker green, TMRE and H2-DCF were obtained from Thermo Fisher Scientific (Waltham, MA, USA). Tyrode solution contained (in mM): 130 NaCL, 4 KCl, 2 CaCl, 1 MgCl2, 10 Glucose, 10 HEPES; pH adjusted to 7.4 with NaOH. LA cardiomyocytes were plated on laminin-coated glass coverslips. 20 mM caffeine was added to Tyrode solution to induce sarcoplasmic reticulum (SR) Ca^2+ release and obtain a measure of SR Ca^2+ content. […]
as §1, with “LA cardiomyocytes were loaded with Fura-2 for 30 min at room temperature, washed twice with Tyrode solution and transferred to the microscope.” left out
CaT and sarcomere shortening of LA and LV cardiomyocytes were recorded for 10 s at 3 Hz stimulation. See FIGS. 2D-G, 4A-F. Electric stimulation was turned off and spontaneous SR Ca^2+ release events (See Voigt N, Heijman J, Wang Q, Chiang D Y, Li N, Karck M, Wehrens X H T, Nattel S, Dobrev D: “Cellular and molecular mechanisms of atrial arrhythmogenesis in patients with paroxysmal atrial fibrillation,” Circulation 2014, 129(2):145-156) (SCaEs) immediately recorded for a duration of 10 s (FIG. 1C-F). […]

[3] = tested on: LA cardiomyocytes; test: Mitochondrial depolarization (TMRE) in LA cardiomyocytes; settings: differences between groups
Experimental: Mitochondrial depolarization. LA cardiomyocytes were loaded with TMRE and MitoTracker green, transferred to an LSM 800 laser scanning microscope and kept in Tyrode's solution containing 2 mM Ca^2+ and 10 nM TMRE. Two-dimensional images of TMRE (excitation: 561 nm, emission: 565-585 nm) and MitoTracker green fluorescence (excitation: 488 nm, emission: 505-525 nm) were acquired for a duration of 6 min (interval: 2 s, resolution: 512×512 px, pixel size: 1.25 μm, pixel time: 1.03 μs, laser intensity: 4%). A binary mask of both channels was derived using a Bernsen thresholding algorithm (ImageJ). Positive pixels of the MitoTracker green image were defined as mitochondria and a positive overlay of the TMRE image assumed to indicate a polarized state. The standard deviation of polarized mitochondria over time was taken as a measure of spatiotemporal oscillation.

With `CCOc1ccc(Cc2cc([C@@H]3O[C@H](SC)[C@@H](O)[C@H](O)[C@H]3O)ccc2Cl)cc1` [sotagliflozin, (2S,3R,4R,5S,6R)-2-(4-chloro-3-(4-ethoxybenzyl)phenyl)-6-(methylthio)tetrahydro-2H-pyran-3,4,5-triol] the “SR Ca2+ load” value ([1]; HFpEF, 20 mM caffeine) was “no effect”, the “tau of caffeine-induced CaT” value ([1]; HFpEF, 20 mM caffeine) was “unchanged” and the “tau of decay (paced CaT)” value ([1]; HFpEF, 1 Hz electric stimulation) was “significantly prolonged”. For the same compound, the “increase of contribution of NCX forward-mode activity on cytosolic Ca2+ removal” value ([1]; HFpEF, Sota vs vehicle) was −50%, the “contribution of NCX forward-mode activity on cytosolic Ca2+ removal” value ([1]; HFpEF, vehicle 7.6±0.7, n=14 and 21 cells) was 11.6±0.7% and the “increased forward mode NCX activity” value ([1]; after chronic treatment, HFpEF vs WT) was “only occurs in HFpEF, but not WT”. For the same compound, the “amplitude of SCaEs” value [2] was “significantly reduced”, the SCaE event frequency ([2]; non-stimulated interval after 3 Hz) was “remained unaltered” and the “incidence and spatial distribution of mitochondrial depolarizations” value [3] was “could not be detected”.
